Data as given in patent publication US20020049205A1, “Pyrazole antimicrobial agents” (priority 2000, published 2002).

Key:
E.c(tolC) = assay: Minimum Inhibitory Concentration assay, E.c(tolC); type: cell-based; conditions: 16 h, read-out: MIC (μM) E.c(tolC)
Experimental: (§1) For Minimum Inhibitory Concentration (MIC) determinations for selected bacteria, log phase growing bacteria are re-suspended at 1×10^5 bacteria per mL in LB medium. The compound is added and two-fold dilutions are made. The final volume in the 96-well plate is about 100 μL. The plate is incubated at 37° C. in the dark with shaking. After 16 hours of incubation, growth is monitored by reading A600 or by visual inspection. MIC is defined as the minimum concentration of drug resulting in inhibition of visible growth of bacterial under the conditions described (above) in National Committee for Clinical Laboratory Standards 1993. Methods for dilution antimicrobial susceptibility tests for bacteria that grow aerobically. Approved standard M7-A3; National Committee for Clinical Laboratory Standards: Villanova, Pa.
as §1, with “MIC” for “Minimum Inhibitory Concentration (MIC)”

[1] = target: T1, Sigma^70 saturated E. coli RNA Polymerase (Escherichia coli, UniProt P0A7Z4+P0A800+P0A8T7+P0A8V2); assay: IC50 assay, inhibition of RNA polymerase; type: biochemical; conditions: Table 3, heteroaryl compounds
T1 construct: purchased Epicenter
T1 sequence (P0A8V2 whole entry): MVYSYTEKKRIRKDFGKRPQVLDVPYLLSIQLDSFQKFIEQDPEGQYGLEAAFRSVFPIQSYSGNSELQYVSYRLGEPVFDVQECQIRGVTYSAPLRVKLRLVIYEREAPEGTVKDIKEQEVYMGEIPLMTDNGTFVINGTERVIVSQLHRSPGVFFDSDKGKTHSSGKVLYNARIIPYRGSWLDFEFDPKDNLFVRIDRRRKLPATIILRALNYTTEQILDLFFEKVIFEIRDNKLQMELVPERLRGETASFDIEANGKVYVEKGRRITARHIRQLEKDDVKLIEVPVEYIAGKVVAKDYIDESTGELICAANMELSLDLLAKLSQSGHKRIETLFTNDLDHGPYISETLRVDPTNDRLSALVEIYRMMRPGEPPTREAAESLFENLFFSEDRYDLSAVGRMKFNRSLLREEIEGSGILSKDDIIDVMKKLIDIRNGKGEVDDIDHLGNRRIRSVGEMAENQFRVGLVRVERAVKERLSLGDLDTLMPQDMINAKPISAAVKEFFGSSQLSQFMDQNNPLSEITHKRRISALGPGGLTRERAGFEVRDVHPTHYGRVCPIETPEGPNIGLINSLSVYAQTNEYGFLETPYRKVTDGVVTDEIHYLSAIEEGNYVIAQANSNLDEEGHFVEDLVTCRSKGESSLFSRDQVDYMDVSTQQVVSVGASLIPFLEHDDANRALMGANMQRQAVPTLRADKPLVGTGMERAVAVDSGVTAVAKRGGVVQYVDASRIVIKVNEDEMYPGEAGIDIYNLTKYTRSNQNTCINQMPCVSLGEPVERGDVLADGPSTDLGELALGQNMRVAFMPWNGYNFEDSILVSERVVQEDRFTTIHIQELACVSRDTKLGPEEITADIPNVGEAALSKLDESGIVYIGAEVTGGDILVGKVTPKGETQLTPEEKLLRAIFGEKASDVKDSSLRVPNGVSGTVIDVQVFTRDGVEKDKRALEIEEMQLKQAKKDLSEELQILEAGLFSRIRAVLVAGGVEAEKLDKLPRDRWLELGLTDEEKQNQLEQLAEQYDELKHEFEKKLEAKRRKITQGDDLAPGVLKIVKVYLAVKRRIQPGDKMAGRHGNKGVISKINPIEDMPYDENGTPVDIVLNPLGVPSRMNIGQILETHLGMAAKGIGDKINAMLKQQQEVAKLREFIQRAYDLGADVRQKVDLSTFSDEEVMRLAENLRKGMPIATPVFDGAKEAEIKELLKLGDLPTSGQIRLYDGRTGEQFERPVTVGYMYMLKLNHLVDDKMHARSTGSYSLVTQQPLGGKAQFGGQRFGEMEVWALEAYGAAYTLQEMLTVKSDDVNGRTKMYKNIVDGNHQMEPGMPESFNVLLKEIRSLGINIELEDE
T1 sequence (P0A8T7 whole entry): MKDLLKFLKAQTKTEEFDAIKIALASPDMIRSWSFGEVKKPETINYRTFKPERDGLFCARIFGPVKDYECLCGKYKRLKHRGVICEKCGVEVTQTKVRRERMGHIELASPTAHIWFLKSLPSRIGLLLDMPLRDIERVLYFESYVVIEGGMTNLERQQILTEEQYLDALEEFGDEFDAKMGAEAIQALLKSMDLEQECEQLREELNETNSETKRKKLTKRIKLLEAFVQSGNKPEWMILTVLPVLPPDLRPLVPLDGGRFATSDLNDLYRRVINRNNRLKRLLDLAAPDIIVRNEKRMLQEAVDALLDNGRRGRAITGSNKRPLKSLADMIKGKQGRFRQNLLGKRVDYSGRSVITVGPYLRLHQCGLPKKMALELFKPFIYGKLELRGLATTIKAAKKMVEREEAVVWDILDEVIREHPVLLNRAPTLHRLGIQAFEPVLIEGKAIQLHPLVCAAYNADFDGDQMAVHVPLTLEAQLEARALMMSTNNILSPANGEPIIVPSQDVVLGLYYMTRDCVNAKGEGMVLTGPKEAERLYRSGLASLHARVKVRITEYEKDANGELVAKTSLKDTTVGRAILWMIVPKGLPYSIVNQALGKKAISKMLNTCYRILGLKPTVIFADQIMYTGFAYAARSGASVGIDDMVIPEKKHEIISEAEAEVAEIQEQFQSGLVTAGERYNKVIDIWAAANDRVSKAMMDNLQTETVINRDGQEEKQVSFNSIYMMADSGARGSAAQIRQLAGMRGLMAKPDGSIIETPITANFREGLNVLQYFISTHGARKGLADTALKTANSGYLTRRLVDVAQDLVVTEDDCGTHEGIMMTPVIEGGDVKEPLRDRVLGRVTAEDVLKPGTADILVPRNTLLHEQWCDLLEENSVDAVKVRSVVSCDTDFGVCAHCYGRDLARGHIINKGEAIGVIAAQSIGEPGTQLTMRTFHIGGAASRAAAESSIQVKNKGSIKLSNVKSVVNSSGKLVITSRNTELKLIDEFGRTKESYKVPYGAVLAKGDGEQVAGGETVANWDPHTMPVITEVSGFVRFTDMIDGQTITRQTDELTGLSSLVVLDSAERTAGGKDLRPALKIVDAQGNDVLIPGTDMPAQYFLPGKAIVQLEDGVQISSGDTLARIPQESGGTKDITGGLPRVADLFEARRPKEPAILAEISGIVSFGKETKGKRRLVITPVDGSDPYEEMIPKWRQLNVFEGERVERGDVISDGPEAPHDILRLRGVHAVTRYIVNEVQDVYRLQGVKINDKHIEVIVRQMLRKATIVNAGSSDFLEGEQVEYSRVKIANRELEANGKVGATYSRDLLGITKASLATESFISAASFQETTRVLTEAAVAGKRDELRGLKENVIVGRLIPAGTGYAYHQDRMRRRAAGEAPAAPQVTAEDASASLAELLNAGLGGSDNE
T1 sequence (P0A7Z4 whole entry): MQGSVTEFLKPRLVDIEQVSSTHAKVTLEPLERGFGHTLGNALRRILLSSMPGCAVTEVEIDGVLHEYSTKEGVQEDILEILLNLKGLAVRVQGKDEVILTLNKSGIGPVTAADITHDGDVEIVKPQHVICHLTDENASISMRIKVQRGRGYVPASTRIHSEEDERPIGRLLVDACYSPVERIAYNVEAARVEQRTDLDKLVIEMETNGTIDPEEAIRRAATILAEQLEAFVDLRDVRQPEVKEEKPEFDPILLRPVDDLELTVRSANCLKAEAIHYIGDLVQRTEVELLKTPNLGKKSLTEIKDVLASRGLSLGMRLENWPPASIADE
T1 sequence (P0A800 whole entry): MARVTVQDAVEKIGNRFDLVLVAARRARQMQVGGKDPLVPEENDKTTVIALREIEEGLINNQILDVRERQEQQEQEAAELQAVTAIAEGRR
Experimental: One common assay involves evaluation of the compounds as RNA polymerase inhibitors. In this assay, buffer (250 mM KCl, 5% glycerol, 10 mM MgCl2, 0.1 mg/ml BSA) is combined with 6 mM β-M.E., PT5 DNA template, and 1.3 μg/rxn Sigma^70 saturated E. coli RNA Polymerase (Epicenter). The compound is then added in a manner not to exceed 5% DMSO. Nucleotide triphosphates are then added at the following concentration: 250 μM ATP, CTP and UTP with 100 μM cold CTP and 50 μM α-^32P CTP. The mixture is incubated for 10 min at about 37° C. A [2×] loading buffer is added and the mixture is then run on a 6% urea denaturing PAGE until bromophenol blue reaches the edge of plate. The gel is soaked (about 20 minutes in 10% MeOH and 10% acetic acid, to remove urea), then dried (about 55 minutes at about 85° C. (BioRad Gel Drier)) and exposed to a Phospho Imaging Plate for 1 hour. The plate is then read on a Fujix Bas1000 Imaging System and quantified using MacBas v2.0 software. An IC50 (in μM) can be calculated as the concentration of a drug which reduces the enzyme activity to 50% of the control.
In this assay, buffer (250 mM KCl, 5% Glycerol, 10 mM MgCl2, 0.1 mg/ml bovine serum albumin (BSA)) is combined with 6 mM β-mercaptoethanol, PT5 DNA template, and 1.3 μg/rxn Sigma^70 saturated E. coli RNA Polymerase (obtained from Epicenter). The compound is then added in a manner not to exceed 5% DMSO. Nucleotide triphosphates are then added at the following concentration: 250 μM ATP, CTP and UTP with 100 μM cold CTP and 50 μM α-32P CTP. The mixture is incubated for 10 min at about 37° C. A [2×] loading buffer is added and the mixture is then run on a 6% urea denaturing PAGE until bromophenol blue reaches the edge of plate. The gel is soaked (about 20 minutes in 10% MeOH and 10% acetic acid, to remove urea), then dried (about 55 minutes at about 85° C. (BioRad Gel Drier)) and exposed to a Phospho Imaging Plate for 1 hour. The plate is then read on a Fujix Bas1000 Imaging System and quantified using MacBas v2.0 software. An IC50 (in μM) can be calculated as the concentration of a compound of the invention that reduces the enzyme activity to 50% of the control. For the sake of clarity, the above-described assay is used to determine the IC50 values referenced in the claims. However, the skilled artisan will recognize that other methods can be used to determine an IC50 value.

S. au = assay: Minimum Inhibitory Concentration assay, S. au; type: cell-based; conditions: LB medium, 16 hours, 37° C.; Table 3
Experimental: as §1
as §1, with “MIC” for “Minimum Inhibitory Concentration (MIC)”

B. su = assay: Minimum Inhibitory Concentration assay, B. su; type: cell-based; conditions: LB medium, 16 hours, 37° C.; Table 3
Experimental: as §1
as §1, with “MIC” for “Minimum Inhibitory Concentration (MIC)”

Cc1c(-c2c[nH]nc2-c2ccc(F)cc2)sc2ccccc12 [Example 37]
< 500 µM: MIC (E.c(tolC)) | IC50 [1] | MIC (S. au) | MIC (B. su)

Fc1cccc(-c2c[nH]nc2-c2ccsc2)c1 [Example 38]
< 500 µM: MIC (E.c(tolC)) | IC50 [1] | MIC (S. au) | MIC (B. su)
